Inconclusive results are not listed. The source made the active and inactive calls.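 Rule for the calls: active = compounds lowering signal with fitted half-maximal concentration within ten times the top tested dose in every test run; inconclusive = test runs disagree, or a run had a weak flat or poor fit; inactive = every test run inactive.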

The target in one assay is Serine/threonine-protein kinase 33 (Homo sapiens) (UniProt Q9BYT3). Description: inhibition of purified STK33 phosphorylating MBP – biochemical, ADP-Glo luminescence, dry powder, dose response (AID 588632). The following applies: purified STK33, MBP phosphorylation. Background: In ADP-Glo the light output rises with the ADP produced.
Chain of Serine/threonine-protein kinase 33 (Homo sapiens) (Q9BYT3 whole entry, looked up): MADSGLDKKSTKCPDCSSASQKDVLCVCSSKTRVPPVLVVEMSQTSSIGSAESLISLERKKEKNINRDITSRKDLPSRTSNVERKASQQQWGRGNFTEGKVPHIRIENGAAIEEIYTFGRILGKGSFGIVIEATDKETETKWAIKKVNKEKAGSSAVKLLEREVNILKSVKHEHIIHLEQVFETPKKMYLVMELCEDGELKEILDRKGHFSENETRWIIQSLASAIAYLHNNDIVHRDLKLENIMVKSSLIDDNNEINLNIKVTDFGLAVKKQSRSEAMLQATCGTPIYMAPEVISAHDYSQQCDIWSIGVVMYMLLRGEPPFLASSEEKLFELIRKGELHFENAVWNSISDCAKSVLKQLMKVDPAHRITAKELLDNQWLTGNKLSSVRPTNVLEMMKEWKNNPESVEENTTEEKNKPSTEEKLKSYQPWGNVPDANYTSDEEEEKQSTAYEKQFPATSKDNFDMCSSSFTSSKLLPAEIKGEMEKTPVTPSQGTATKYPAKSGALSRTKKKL
Turning to `O=C1NCCCc2c1oc1ccc(O)cc21`, the half-maximal activity concentration (AC50) (in general, the concentration giving half of the maximal activity seen) is 939 nM.

With `O=C(Nc1ccccc1-c1nc2ccccc2[nH]c1=O)c1cccs1`, the AC50 was 331 nM.

For the molecule `CCCn1c(NC(=O)c2cccc(S(=O)(=O)N3CCCC3)c2)nc2ccccc21`, the AC50 is 122 nM.

On to `CC(Oc1ccc2c(c1)c1ccnc3c4ccccc4c(=O)n2c13)C(=O)NCCN1CCOCC1` (stereo not drawn), for which the AC50 is 168 nM.

For `COc1cc(N2CCN(C)CC2)ccc1Nc1ncc2c(n1)N(C1CCCC1)C(C)CC(=O)N2C` (stereo not drawn), the AC50 is 910 nM.

Consider `CN1CCN(c2ccc(Nc3ncc4c(n3)N(C)c3ccccc3C(=O)N4C)cc2)CC1`, for which the AC50 is 1130 nM.

On to `COc1cc(/C=C2\SC(N)=NC2=O)ccc1O`, for which the AC50 is 574 nM.

With `COc1cc(/C=C2\SC(=Nc3ccccc3OC)NC2=O)ccc1O`, the AC50 was 314 nM.

On to `COc1cc(N2CCN(C)CC2)ccc1Nc1ncc2c(n1)N(C)c1ccccc1C(=O)N2C`, for which the AC50 was 1600 nM.

Take `O=C1NC(=NCc2ccccc2)S/C1=C/c1ccc(O)cc1`: the AC50 was 522 nM.

Turning to `COC(=O)c1ccc(COc2ccccc2/C=C/C(=O)c2ccc(OCC(=O)O)cc2)cc1`, the AC50 was 400 nM.

Consider `COc1cc(N2CCC(N3CCN(C)CC3)CC2)ccc1Nc1ncc2c(n1)N1CCC[C@H]1CC(=O)N2C`, for which the concentration at half-maximal activity (AC50) is 1880 nM.

For the molecule `Cc1ncc(/C=C2\C(=O)Nc3ccccc32)[nH]1`, the AC50 is 795 nM.

Regarding `COc1cc(C(=O)N2CCC(N3CCN(C)CC3)CC2)ccc1Nc1ncc2c(n1)N(C)c1ccccc1C(=O)N2C`, the AC50 was 6450 nM.

As for `Oc1ccc(Nc2nc(-c3ccccc3O)nc3ccccc23)cc1`, the AC50 is 811 nM.

In the case of `COc1cc(/C=N/n2c(-c3ccccc3)n[nH]c2=S)ccc1O`, the AC50 is 695 nM.

With `COc1cc(N2CCN(C)CC2)ccc1Nc1ncc2c(n1)N(C)c1sccc1C(=O)N2C`, the AC50 is 1560 nM.

For `COc1cc(C(=O)NC2CCN(C)CC2)ccc1Nc1ncc2c(n1)N(C1CCC(O)CC1)CCC(=O)N2C` (stereo not drawn), the concentration at half-maximal activity (AC50) is 1180 nM.

As for `Nc1nc(-c2cc(O)ccc2[N+](=O)[O-])cc(-c2ccccc2)c1[N+](=O)[O-]`, the AC50 was 151 nM.

Turning to `CC(C)n1cnc2c(Nc3cccc(Cl)c3)nc(NCCO)nc21`, the AC50 was 632 nM.

As to `CCOc1ccccc1C(=O)Nc1cc(Cl)ccc1O`, the AC50 is 1250 nM.

On to `COc1cc(N2CCC(O)CC2)ccc1Nc1ncc2c(n1)N1CCc3cccc(c31)C(=O)N2C`, for which the AC50 is 509 nM.

For the molecule `CC(=O)N(C)c1ccc(N=Cc2c(O)ccc3ccccc23)cc1`, the AC50 was 1130 nM.

As to `O=C(Nc1ccccc1-c1ccccc1)c1ccc(Br)o1`, the AC50 is 1580 nM.

Regarding `COc1cc(N2CCN(C)CC2)ccc1Nc1ncc2c(n1)N1CCC[C@H]1CC(=O)N2C`, the AC50 is 409 nM.

Turning to `COc1cc(N2CCC(N3CCN(C)CC3)CC2)ccc1Nc1ncc2c(n1)N(C1CCCC1)C(C)CC(=O)N2C` (stereo not drawn), the AC50 was 2200 nM.

The assay is the same for the next values; noted with them: purified STK33, MBP phosphorylation, at 10 µM (top of the series).
In the case of `CCC(CO)Oc1cc(NC(=O)c2cccc(Cl)c2)c2ncn(C(C)C)c2c1` (stereo not drawn), the “activity change, negative = inhibition” value is “inactive”.

On to `CCC(CO)Oc1cc(NC(=O)c2ccccc2Cl)c2ncn(C(C)C)c2c1` (stereo not drawn), for which the “activity change, negative = inhibition” value was “inactive”.

Regarding `CCC(CO)Oc1cc(NC(=O)c2cccc(N)c2)c2ncn(C(C)C)c2c1` (stereo not drawn), the “activity change, negative = inhibition” value was “inactive”.

Take `CCC(CO)Oc1cc(NC(=O)c2ccccc2C)c2ncn(C(C)C)c2c1` (stereo not drawn): the “activity change, negative = inhibition” value is “inactive”.

As to `CCC(CO)Oc1cc(NC(=O)c2ccc(Cl)cc2)c2ncn(C(C)C)c2c1` (stereo not drawn), the “activity change, negative = inhibition” value was “inactive”.

`COCCCOc1cc(NCc2ccccc2)c2ncn(C(C)C)c2c1`: the “activity change, negative = inhibition” value is “inactive”.

As for `CCC(CO)Oc1cc(NC(=O)c2cccc(F)c2)c2ncn(C(C)C)c2c1` (stereo not drawn), the “activity change, negative = inhibition” value is “inactive”.

On to `CCC(CO)Oc1cc(NC(=O)c2ccc(OC)cc2)c2ncn(C(C)C)c2c1` (stereo not drawn), for which the “activity change, negative = inhibition” value is “inactive”.

As for `CCC(CO)Oc1cc(NC(=O)c2ccccc2OC)c2ncn(C(C)C)c2c1` (stereo not drawn), the “activity change, negative = inhibition” value was “inactive”.

On to `CCC(CO)Oc1cc(NC(=O)c2cccc(OC)c2)c2ncn(C(C)C)c2c1` (stereo not drawn), for which the “activity change, negative = inhibition” value was “inactive”.

For `CCC(CO)Oc1cc(NC(=O)c2ccc([N+](=O)[O-])cc2)c2ncn(C(C)C)c2c1` (stereo not drawn), the “activity change, negative = inhibition” value was “inactive”.

For the molecule `CCC(CO)Oc1cc(NC(=O)c2ccccc2)c2ncn(C(C)C)c2c1` (stereo not drawn), the “activity change, negative = inhibition” value was “inactive”.

With `CCC(CO)Oc1cc(NC(=O)c2ccc(C)cc2)c2ncn(C(C)C)c2c1` (stereo not drawn), the “activity change, negative = inhibition” value was “inactive”.

`COc1cc(NCc2ccccc2)c2ncn(C(C)C)c2c1`: the “activity change, negative = inhibition” value was “inactive”.

Regarding `CC(C)n1cnc2c(NCc3ccccc3)cc(OCCCN3CCOCC3)cc21`, the “activity change, negative = inhibition” value was “inactive”.

As to `CCC(CO)Oc1cc(NCc2ccccc2)c2ncn(C3CCCC3)c2c1` (stereo not drawn), the “activity change, negative = inhibition” value is “inactive”.

Regarding `CCC(CO)Oc1cc(NC(=O)c2ccc(N)cc2)c2ncn(C(C)C)c2c1` (stereo not drawn), the “activity change, negative = inhibition” value is “inactive”.

For `CCC(CO)Oc1cc(NCc2ccccc2)c2ncn(C(C)C)c2c1` (stereo not drawn), the “activity change, negative = inhibition” value is “inactive”.

Turning to `CCC(CO)Oc1cc(NC(=O)c2ccccc2N)c2ncn(C(C)C)c2c1` (stereo not drawn), the “activity change, negative = inhibition” value is “inactive”.

For `CCC(CO)Oc1cc(NC(=O)c2cccc(C)c2)c2ncn(C(C)C)c2c1` (stereo not drawn), the “activity change, negative = inhibition” value is “inactive”.

As to `CCC(CO)Oc1cc(NC(=O)c2ccc(F)cc2)c2ncn(C(C)C)c2c1` (stereo not drawn), the “activity change, negative = inhibition” value is “inactive”.

With `CCC(CO)Oc1cc(NC(=O)c2cccc([N+](=O)[O-])c2)c2ncn(C(C)C)c2c1` (stereo not drawn), the “activity change, negative = inhibition” value was “inactive”.

(Values after PubChem BioAssay AID588632 (Broad Institute, 2011).)
